For 13 compounds, DC50 and Dmax results are on record in patent publication US12091426B2, “Bifunctional degraders of hematopoietic progenitor kinase and therapeutic uses thereof” (Nurix Therapeutics, Inc., priority 2021, dated 2024).

As a reminder, the DC50 is the concentration giving 50% degradation. The term Dmax denotes the largest share of the target that was removed.

This test deals with T1, HPK1 (Homo sapiens, UniProt Q92918).
T1 construct: A HiBiT tag was introduced by CRISPR on the N terminus of HPK1 in Jurkat cells; host or cells: Jurkat cells (ATCC TIB-152), monoclonal line with CRISPR knock-in of HiBiT at the endogenous HPK1 locus
T1 sequence (Q92918 whole entry): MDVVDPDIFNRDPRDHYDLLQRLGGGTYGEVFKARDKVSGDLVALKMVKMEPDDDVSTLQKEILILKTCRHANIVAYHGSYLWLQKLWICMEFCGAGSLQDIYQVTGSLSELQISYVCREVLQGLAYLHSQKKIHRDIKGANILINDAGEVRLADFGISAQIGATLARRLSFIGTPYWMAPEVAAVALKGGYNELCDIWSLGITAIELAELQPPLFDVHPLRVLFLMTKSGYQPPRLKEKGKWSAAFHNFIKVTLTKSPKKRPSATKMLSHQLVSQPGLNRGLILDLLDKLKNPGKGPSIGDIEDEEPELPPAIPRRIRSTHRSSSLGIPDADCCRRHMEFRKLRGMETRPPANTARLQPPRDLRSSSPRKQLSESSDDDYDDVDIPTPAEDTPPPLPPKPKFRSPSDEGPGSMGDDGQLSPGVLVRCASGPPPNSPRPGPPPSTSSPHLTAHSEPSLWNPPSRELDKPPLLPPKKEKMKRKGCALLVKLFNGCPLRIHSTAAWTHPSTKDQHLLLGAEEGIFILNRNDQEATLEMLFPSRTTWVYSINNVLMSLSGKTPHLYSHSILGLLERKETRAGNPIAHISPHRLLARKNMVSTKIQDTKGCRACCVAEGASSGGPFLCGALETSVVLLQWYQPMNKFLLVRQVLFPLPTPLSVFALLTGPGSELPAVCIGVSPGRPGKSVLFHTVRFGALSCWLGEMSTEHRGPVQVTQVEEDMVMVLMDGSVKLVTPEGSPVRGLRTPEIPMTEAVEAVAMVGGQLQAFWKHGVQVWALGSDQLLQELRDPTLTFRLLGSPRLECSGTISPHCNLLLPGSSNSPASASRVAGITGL
The test can be described thus: HPK1 Cellular HiBit Degradation Assay. The class given is cell-based. Conditions: HiBiT HPK1 Jurkat cells, 24 hrs; for DC50: concentration at which 50% of HPK1 was remaining, read-out: DC50 Category; for Dmax: Jurkat, maximum degradation vs DMSO vehicle control, read-out: Dmax Category. A digest of the protocol: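 Jurkat cells with CRISPR knock-in N-terminal HiBiT-HPK1 were treated with CTMs (11-point, 3.16-fold, 10 uM to 0.1 nM final) for 24 hrs at 37° C. HiBiT lytic luminescence, with parental Jurkat as background and DMSO as 100%, gave % HPK1 remaining; four-parameter fit yielded DC50 and Dmax (100 minus lowest % remaining).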
A general note: With HiBiT, luminescence reflects the tagged protein that the partner subunit can reach.

Turning to `CC(C)n1cnc2cc(-c3ccc4c(c3)N([C@H]3C[C@@H](N5CCCCC5)C3)C(=O)C43CCN(C(=O)C4CCC5(CCC5)N(C(=O)C5CCN(c6ccc(C7CCC(=O)NC7=O)cn6)CC5)C4)CC3)nc(NC3CC3)c21` (mixture of isomers) [Example 290, (3RS)-3-(6-{4-[7-({6-[4-(cyclopropylamino)-3-(propan-2-yl)-3H-imidazo[4,5-c]pyridin-6-yl]-2-oxo-1-[(1S,3S)-3-(piperidin-1-yl)cyclobutyl]-1,2-dihydrospiro[indole-3,4′-piperidin]-1′-yl}carbonyl)-5-azaspiro[3.5]nonane-5-carbonyl]piperidin-1-yl}pyridin-3-yl)piperidine-2,6-dione], the DC50 is 100 to 500 nM and the Dmax lay in the range of 70 to 85%.
On the same counts, the results for `CC(C)n1cnc2cc(-c3ccc4c(c3)N([C@H]3C[C@@H](N5CCCCC5)C3)C(=O)C43CCN(C(=O)[C@H]4CC[C@H](CNC(=O)C5CCN(c6ccc(C7CCC(=O)NC7=O)cn6)CC5)CC4)CC3)nc(NC3CC3)c21` (mixture of isomers) [Example 291, 1-{5-[(3RS)-2,6-dioxopiperidin-3-yl]pyridin-2-yl}-N-{[(1R,4R)-4-({6-[4-(cyclopropylamino)-3-(propan-2-yl)-3H-imidazo[4,5-c]pyridin-6-yl]-2-oxo-1-[(1S,3S)-3-(piperidin-1-yl)cyclobutyl]-1,2-dihydrospiro[indole-3,4′-piperidin]-1′-yl}carbonyl)cyclohexyl]methyl}piperidine-4-carboxamide] are 100 to 500 nM and 70 to 85%.
For the compound `CC(C)n1cnc2cc(-c3ccc4c(c3)N([C@H]3C[C@@H](N5CCCCC5)C3)C(=O)C43CCN(C(=O)[C@@H]4CCC[C@H](NC(=O)CC5CCN(c6ccc(C7CCC(=O)NC7=O)cn6)CC5)C4)CC3)nc(NC3CC3)c21` (mixture of isomers) [Example 292, N-[(1S,3R)-3-({6-[4-(cyclopropylamino)-3-(propan-2-yl)-3H-imidazo[4,5-c]pyridin-6-yl]-2-oxo-1-[(1s,3s)-3-(piperidin-1-yl)cyclobutyl]-1,2-dihydrospiro[indole-3,4′-piperidin]-1′-yl}carbonyl)cyclohexyl]-2-(1-{5-[(3RS)-2,6-dioxopiperidin-3-yl]pyridin-2-yl}piperidin-4-yl)acetamide], the DC50 lay in the range of 100 to 500 nM and the Dmax was 70 to 85%.
On the same counts, the results for `CC(C)n1cnc2cc(-c3ccc4c(c3)N([C@H]3C[C@@H](N5CCCCC5)C3)C(=O)C43CCN(C(=O)c4ccc(CN5CCN(C(=O)C6CCN(c7ccc(C8CCC(=O)NC8=O)cn7)CC6)CC5)cc4)CC3)nc(NC3CC3)c21` (mixture of isomers) [Example 293, (3RS)-3-{6-[4-(4-{[4-({6-[4-(cyclopropylamino)-3-(propan-2-yl)-3H-imidazo[4,5-c]pyridin-6-yl]-2-oxo-1-[(1S,3S)-3-(piperidin-1-yl)cyclobutyl]-1,2-dihydrospiro[indole-3,4′-piperidin]-1′-yl}carbonyl)phenyl]methyl}piperazine-1-carbonyl)piperidin-1-yl]pyridin-3-yl}piperidine-2,6-dione] are 100 to 500 nM and 70 to 85%.
On the same counts, the results for `CC(C)n1cnc2cc(-c3ccc4c(c3)N([C@H]3C[C@@H](N5CCCCC5)C3)C(=O)C43CCN(C(=O)C4CCC5(CCN(C(=O)C6CCN(c7ccc(C8CCC(=O)NC8=O)cn7)CC6)CC5)C4)CC3)nc(NC3CC3)c21` (mixture of isomers) [Example 294, (3RS)-3-(6-{4-[2-({6-[4-(cyclopropylamino)-3-(propan-2-yl)-3H-imidazo[4,5-c]pyridin-6-yl]-2-oxo-1-[(1S,3S)-3-(piperidin-1-yl)cyclobutyl]-1,2-dihydrospiro[indole-3,4′-piperidin]-1′-yl}carbonyl)-8-azaspiro[4.5]decane-8-carbonyl]piperidin-1-yl}pyridin-3-yl)piperidine-2,6-dione] are 100 to 500 nM and 70 to 85%.
On the same counts, the results for `CC(C)n1cnc2cc(-c3ccc4c(c3)N([C@H]3C[C@@H](N5CCCCC5)C3)C(=O)C43CCN(C(=O)C4CCC5(CC4)CCN(C(=O)C4CCN(c6ccc(C7CCC(=O)NC7=O)cn6)CC4)CC5)CC3)nc(NC3CC3)c21` (mixture of isomers) [Example 295, (3RS)-3-(6-{4-[9-({6-[4-(cyclopropylamino)-3-(propan-2-yl)-3H-imidazo[4,5-c]pyridin-6-yl]-2-oxo-1-[(1S,3S)-3-(piperidin-1-yl)cyclobutyl]-1,2-dihydrospiro[indole-3,4′-piperidin]-1′-yl}carbonyl)-3-azaspiro[5.5]undecane-3-carbonyl]piperidin-1-yl}pyridin-3-yl)piperidine-2,6-dione] are 100 to 500 nM and 70 to 85%.
For the compound `CC(C)n1cnc2cc(-c3ccc4c(c3)N([C@H]3C[C@@H](N5CCCCC5)C3)C(=O)C43CCN(C(=O)C[C@H]4CCCN(C(=O)C5CCN(c6ccc(C7CCC(=O)NC7=O)cn6)CC5)C4)CC3)nc(NC3CC3)c21` (mixture of isomers) [Example 296, (3RS)-3-(6-{4-[(3R)-3-(2-{6-[4-(cyclopropylamino)-3-(propan-2-yl)-3H-imidazo[4,5-c]pyridin-6-yl]-2-oxo-1-[(1S,3S)-3-(piperidin-1-yl)cyclobutyl]-1,2-dihydrospiro[indole-3,4′-piperidin]-1′-yl}-2-oxoethyl)piperidine-1-carbonyl]piperidin-1-yl}pyridin-3-yl)piperidine-2,6-dione], the DC50 fell in the range of 100 to 500 nM and the Dmax lay within 70 to 85%.
For `CC(C)n1cnc2cc(-c3ccc4c(c3)N([C@H]3C[C@@H](N5CCCCC5)C3)C(=O)C43CCN(C(=O)C[C@H]4CCCN(C(=O)CC5CCN(c6ccc(C7CCC(=O)NC7=O)cn6)CC5)C4)CC3)nc(NC3CC3)c21` (mixture of isomers) [Example 297, (3RS)-3-[6-(4-{2-[(3R)-3-(2-{6-[4-(cyclopropylamino)-3-(propan-2-yl)-3H-imidazo[4,5-c]pyridin-6-yl]-2-oxo-1-[(1S,3S)-3-(piperidin-1-yl)cyclobutyl]-1,2-dihydrospiro[indole-3,4′-piperidin]-1′-yl}-2-oxoethyl)piperidin-1-yl]-2-oxoethyl}piperidin-1-yl)pyridin-3-yl]piperidine-2,6-dione], the DC50 is 500 to 1000 nM and the Dmax was 50 to 70%.
Taken in the same sequence, the figures for `CC(C)n1cnc2cc(-c3ccc4c(c3)N([C@H]3C[C@@H](N5CCCCC5)C3)C(=O)C43CCN(C(=O)C[C@@H]4CCCN(C(=O)C5CCN(c6ccc(C7CCC(=O)NC7=O)cn6)CC5)C4)CC3)nc(NC3CC3)c21` (mixture of isomers) [Example 298, (3RS)-3-(6-{4-[(3S)-3-(2-{6-[4-(cyclopropylamino)-3-(propan-2-yl)-3H-imidazo[4,5-c]pyridin-6-yl]-2-oxo-1-[(1S,3S)-3-(piperidin-1-yl)cyclobutyl]-1,2-dihydrospiro[indole-3,4′-piperidin]-1′-yl}-2-oxoethyl)piperidine-1-carbonyl]piperidin-1-yl}pyridin-3-yl)piperidine-2,6-dione] were 100 to 500 nM and 50 to 70%.
On the same counts, the results for `CC(C)n1cnc2cc(-c3ccc4c(c3)N([C@H]3C[C@@H](N5CCCCC5)C3)C(=O)C43CCN(C(=O)C[C@@H]4CCCN(C(=O)CC5CCN(c6ccc(C7CCC(=O)NC7=O)cn6)CC5)C4)CC3)nc(NC3CC3)c21` (mixture of isomers) [Example 299, (3RS)-3-[6-(4-{2-[(3S)-3-(2-{6-[4-(cyclopropylamino)-3-(propan-2-yl)-3H-imidazo[4,5-c]pyridin-6-yl]-2-oxo-1-[(1S,3S)-3-(piperidin-1-yl)cyclobutyl]-1,2-dihydrospiro[indole-3,4′-piperidin]-1′-yl}-2-oxoethyl)piperidin-1-yl]-2-oxoethyl}piperidin-1-yl)pyridin-3-yl]piperidine-2,6-dione] are 100 to 500 nM and 70 to 85%.
On to `CC(C)n1cnc2cc(-c3ccc4c(c3)N([C@H]3C[C@@H](N5CCCCC5)C3)C(=O)C43CCN(C(=O)C4(C5CCN(C(=O)C6CCN(c7ccc(C8CCC(=O)NC8=O)cn7)CC6)CC5)CCC4)CC3)nc(NC3CC3)c21` (mixture of isomers) [Example 300, (3RS)-3-[6-(4-{4-[1-({6-[4-(cyclopropylamino)-3-(propan-2-yl)-3H-imidazo[4,5-c]pyridin-6-yl]-2-oxo-1-[(1S,3S)-3-(piperidin-1-yl)cyclobutyl]-1,2-dihydrospiro[indole-3,4′-piperidin]-1′-yl}carbonyl)cyclobutyl]piperidine-1-carbonyl}piperidin-1-yl)pyridin-3-yl]piperidine-2,6-dione], for which the half-maximal degradation concentration (DC50) is less than 100 nM and the Dmax was 70 to 85%.
Taken in the same sequence, the figures for `CC(C)n1cnc2cc(-c3ccc4c(c3)N([C@H]3C[C@@H](N5CCCCC5)C3)C(=O)C43CCN(C(=O)c4cccc(C5CCN(C(=O)C6CCN(c7ccc(C8CCC(=O)NC8=O)cn7)CC6)CC5)c4)CC3)nc(NC3CC3)c21` (mixture of isomers) [Example 301, (3RS)-3-[6-(4-{4-[3-({6-[4-(cyclopropylamino)-3-(propan-2-yl)-3H-imidazo[4,5-c]pyridin-6-yl]-2-oxo-1-[(1S,3S)-3-(piperidin-1-yl)cyclobutyl]-1,2-dihydrospiro[indole-3,4′-piperidin]-1′-yl}carbonyl)phenyl]piperidine-1-carbonyl}piperidin-1-yl)pyridin-3-yl]piperidine-2,6-dione] were 100 to 500 nM and 50 to 70%.
On the same counts, the results for `CC(C)n1cnc2cc(-c3ccc4c(c3)N([C@H]3C[C@@H](N5CCCCC5)C3)C(=O)C43CCN(C(=O)c4ccc(C5CCN(C(=O)C6CCN(c7ccc(C8CCC(=O)NC8=O)cn7)CC6)CC5)cc4)CC3)nc(NC3CC3)c21` (mixture of isomers) [Example 302, (3RS)-3-[6-(4-{4-[4-({6-[4-(cyclopropylamino)-3-(propan-2-yl)-3H-imidazo[4,5-c]pyridin-6-yl]-2-oxo-1-[(1S,3S)-3-(piperidin-1-yl)cyclobutyl]-1,2-dihydrospiro[indole-3,4′-piperidin]-1′-yl}carbonyl)phenyl]piperidine-1-carbonyl}piperidin-1-yl)pyridin-3-yl]piperidine-2,6-dione] are 100 to 500 nM and 70 to 85%.
